The nature of this series: solvent given as SMILES.

“And” between values parts separate entries of the source, which are not always exact repeats. Equal values may be shown once.

In turn, `O=P1(c2ccccc2)C2=C(c3ccccc31)S(=O)(=O)c1ccccc12` (stereo unspecified) yielded a fluorescence lifetime (in ClCCl) of 12.9 ns.

The compound `CC(C)(C)NC(=O)c1cc2ccccc2c2ccc3c4ccccc4c4ccccc4c3c12` returned a fluorescence lifetime (in ClCCl) of 3.28 ns.

In the case of `N#Cc1c(-n2c3ccc(Br)cc3c3cc(Br)ccc32)c(C#N)c(-n2c3ccc(Br)cc3c3cc(Br)ccc32)c(-n2c3ccc(Br)cc3c3cc(Br)ccc32)c1-n1c2ccc(Br)cc2c2cc(Br)ccc21`, the fluorescence lifetime (in Cc1ccccc1) was 0.4 ns.

As for `COc1ccc(-c2c3ccccc3c(C#Cc3ccccc3)c3cc4cc(C)sc4cc23)cc1`, the fluorescence lifetime (in ClCCl) is 7.1 ns.

Where the note is “in ClC(Cl)Cl”, `COc1ccc2cc(-c3ccc(-c4cc5ccc(OC)cc5oc4=O)cc3)c(=O)oc2c1` showed a fluorescence lifetime of 1.4 ns.

Regarding `CCC1(CC)c2cc(Br)ccc2-c2c1c1c(c3c2C(CC)(CC)c2cc(-c4cccs4)ccc2-3)C(CC)(CC)c2cc(Br)ccc2-1`, the fluorescence lifetime (in C1CCOC1) is 0.92 ns.

Under “in O=P(c1ccccc1)(c1ccccc1)c1ccccc1Oc1ccccc1P(=O)(c1ccccc1)c1ccccc1”, `F[B-]1(F)Oc2ccccc2-c2cc(-n3c4ccc(-c5ccccc5)cc4c4cc(-c5ccccc5)ccc43)cc[n+]21` registered a fluorescence lifetime of 6.3 ns.

Consider `NS(=O)(=O)c1ccc(N2N=C(c3ccc(O)cc3)CC2c2ccc(Br)cc2)cc1` (stereo unspecified), for which the fluorescence lifetime came to 2.25 ns (in C1CCOC1); 2.17 ns (in C1COCCO1); 2.2 ns (in CC#N); 1.98 ns (in CC(C)O); 1.84 ns (in CCO); 2.18 ns (in CCOC(C)=O). For the same compound, the fluorescence lifetime stood at 2.12 ns (in CN(C)C=O), 1.67 ns (in CO), 2 ns (in CS(C)=O) and 3.07 ns (in O).

As to `COc1cc(OC)cc(C2=[O+][B-](F)(F)OC(c3cccs3)=C2)c1`, the fluorescence lifetime (in ClCCl) is 4.53 ns.

As for `Cc1ccc2c(c1)C1(c3ccccc3-c3ccccc31)c1cc(C)ccc1N2c1ccc(-c2ncccn2)cc1`, the fluorescence lifetime (in O=P(c1ccccc1)(c1ccccc1)c1ccc2oc3ccc(P(=O)(c4ccccc4)c4ccccc4)cc3c2c1) came out at 13 ns.

In turn, `c1cc2ccc3cccc4c(-c5cc(-c6nccs6)nc(-c6nccs6)c5)cc(c1)c2c34` gave a fluorescence lifetime (in CC#N) of 2.9 ns, a fluorescence lifetime (in CCCCCC) of 3.24 ns, a fluorescence lifetime (in CO) of 3.2 ns and a fluorescence lifetime (in ClC(Cl)Cl) of 2.41 ns.

As for `COc1ccc(-c2csc(/C(C#N)=C/c3ccc(Cl)cc3Cl)n2)cc1`, the fluorescence lifetime (in CC#N) was 3.05 ns.

`Oc1ccccc1/C=N/c1ccccc1/N=C/c1ccccc1O`: the fluorescence lifetime (in CC#N) was 0.0089 ns.

For the compound `CC[B-]1(CC)c2cccc3c4c5c(cccc5c(c23)-c2cccc(C)[n+]21)[B-](CC)(CC)[n+]1c(C)cccc1-4`, for the setting “in ClCCl”, the fluorescence lifetime is 11.1 ns.

`CC1=CC(C)=[N+]2C1=Cc1ccc(CCC(=O)ON3C(=O)CCC3=O)n1[B-]2(F)F` gave a fluorescence lifetime (in CO) of 5.7 ns.

Turning to `CC1=[N+]2C(=C(c3ccccc3)c3ccc(C)n3[B-]2(F)F)C=C1`, the fluorescence lifetime reads like this: (in C1CCCCC1) 1.94 ns; (in CC#N) 1.33 ns; (in CCOC(C)=O) 1.71 ns; (in CO) 1.46 ns; (in Cc1ccccc1) 2.65 ns; (in ClC(Cl)Cl) 2.65 ns.

Under “in CC#N”, `Cc1ccc(-n2c(C)ccc2C)cc1` gave a fluorescence lifetime of 4.4 ns.

For the compound `c1ccc(-c2nc(-c3ccc(-c4cccs4)s3)[nH]c2-c2ccccc2)cc1`, the fluorescence lifetime (in CC#N) was found to be 0.86 ns.

For the setting “in C1CCCCC1”, `C[Si](C)(C)C#Cc1ccc2c3cccc4cccc(c5cccc1c52)c43` gave a fluorescence lifetime of 4.2 ns.

Turning to `COC(=O)C(NC(=O)OC(C)(C)C)c1ccc2oc(-c3cc(OC)c(OC)c(OC)c3)nc2c1` (stereo unspecified), the fluorescence lifetime reads like this: (in CC1CCCCC1) 1.01 ns; (in CC#N) 1.2 ns; (in CO) 1.28 ns.

`c1ccc(-p2c3ccccc3c3sc4ccccc4c32)cc1` (stereo unspecified) displayed a fluorescence lifetime (in ClCCl) of 3.57 ns.

On to `O=S(=O)(c1ccc(N2c3ccccc3N(c3ccccc3)c3ccccc32)cc1)c1ccc(N2c3ccccc3N(c3ccccc3)c3ccccc32)cc1`, for which the fluorescence lifetime was found to be 5.6 ns (in Cc1ccccc1) and 10 ns (in c1cc(-n2c3ccccc3c3ccccc32)cc(-n2c3ccccc3c3ccccc32)c1).

In the case of `O=C1/C(=C2\Nc3cc4ccc5cccc6ccc(c3C2=O)c4c56)Nc2cc3ccc4cccc5ccc(c21)c3c45`, for the setting “in C1CCOC1”, the fluorescence lifetime worked out at 0.42 ns.

`Cc1csc(C)c1C1=C(c2c(C)sc(-c3ccc(-c4nc(-c5ccccc5)c(-c5ccccc5)[nH]4)cc3)c2C)C(F)(F)C(F)(F)C1(F)F`: under “in C1CCOC1”, the fluorescence lifetime amounted to 0.42 ns.

`N#Cc1c2ccccc2cc2ccccc12`: the fluorescence lifetime runs as follows: (in C1CCCCC1) 12.7 ns; (in CO) 16 ns.

On to `CC1=C(Br)C(C)=[N+]2C1=C(c1c(-c3ccccn3)nc3ccccn13)c1c(C)c(Br)c(C)n1[B-]2(F)F`, for which, for the setting “in ClCCl”, the fluorescence lifetime is 0.9 ns.

As to `CCN(CC)c1ccc2cc(C#N)c(=O)oc2c1`, the fluorescence lifetime (in ClCCl) amounted to 2.7 ns.

On to `Cc1ccc(N(c2ccc(C)cc2)c2ccc3c4cccc5c(N(c6ccc(C)cc6)c6ccc(C)cc6)ccc(c6cccc2c63)c54)cc1`, for which, for the setting “in ClCCl”, the fluorescence lifetime is 6.25 ns.

In the case of `COC(=O)C(NC(=O)OC(C)(C)C)c1ccc2oc(-c3ccc(C#N)cc3)nc2c1` (stereo unspecified), the fluorescence lifetime is 1.28 ns (in CC1CCCCC1), 1.87 ns (in CC#N) and 1.92 ns (in CO).

For the compound `N#Cc1c(-n2c3ccccc3c3ccccc32)c(-n2c3ccccc3c3ccccc32)c(-n2c3ccccc3c3ccccc32)c(-n2c3ccccc3c3ccccc32)c1-n1c2ccccc2c2ccccc21`, the fluorescence lifetime reads like this: (in Cc1ccccc1) 3.8 ns; (in c1cc(-c2cccc(-n3c4ccccc4c4ccccc43)c2)cc(-n2c3ccccc3c3ccccc32)c1) 3.2 ns.

For the setting “in O”, `O=c1c2cc(Cl)ccc2[nH]c2ccc(COO)cc12` displayed a fluorescence lifetime of 16.8 ns.

Consider `COc1ccc(-c2ccc(OC)cc2)cc1`, for which the fluorescence lifetime (in C1CCCCC1) turned out to be 17.7 ns.

For `c1ccc(N2N=C(c3ccc4ccc5cccc6ccc3c4c56)CC2c2ccc3ccc4cccc5ccc2c3c45)cc1` (stereo unspecified), under “in ClCCl”, the fluorescence lifetime was 2.67 ns.

The compound `Brc1ccc(-c2nc(-c3ccc(-c4nc(-c5ccc(Br)cc5)c(-c5ccc(Br)cc5)[nH]4)cc3)[nH]c2-c2ccc(Br)cc2)cc1` returned a fluorescence lifetime (in CS(C)=O) of 0.55 ns.

Turning to `COc1ccc(-c2c3ccc([nH]3)c3nc(c(-c4ccc(C#N)cc4)c4ccc([nH]4)c4ccc([nH]4)c(-c4ccc(OC)cc4)c4ccc2o4)C=C3)cc1`, the fluorescence lifetime turned out to be 5.6 ns (in C1CCOC1), 5.65 ns (in Cc1ccccc1) and 4.88 ns (in c1ccccc1).

Where the note is “in Cc1ccccc1”, `C(#Cc1cc2ccc3cccc4ccc(c1)c2c34)c1ccccc1` registered a fluorescence lifetime of 71 ns.

As for `Cc1cc(-c2ccccc2)nc2c1ccc1nc(-c3ccccc3)cn12`, the fluorescence lifetime (in CC#N) amounted to 6.97 ns; the fluorescence lifetime (in CCCCOC(C)=O) was 6.04 ns; the fluorescence lifetime (in CCOC(C)=O) came to 5.98 ns; the fluorescence lifetime (in CO) came out at 5.18 ns; the fluorescence lifetime (in c1ccccc1) turned out to be 5.55 ns.

Regarding `FC(F)(F)c1ccc(/C=C/c2nc3c(ccc4ccccc43)s2)cc1`, the fluorescence lifetime reads like this: (in C1CCCCC1) 0.75 ns; (in CC#N) 0.84 ns.

Take `C=Cc1ccc(OC)c(OC)c1`: the fluorescence lifetime by setting is: (in C1CCCCC1) 3.3 ns; (in CC#N) 3.2 ns.

As for `CCCCCCN(CCCCCC)c1ccc(C#Cc2ccc(C#N)cc2)cc1`, the fluorescence lifetime is, setting by setting: (in CC#N) 1 ns; (in CO) 1 ns; (in ClCCl) 2.8 ns.

On to `N#Cc1ccc2c(c1)CCc1nc(-c3ccc([N+](=O)[O-])cc3)c3c(c1-2)CCc1cc(C#N)ccc1-3`, for which the fluorescence lifetime was determined as 1.36 ns (in C1CCOC1); 1.11 ns (in CC#N); 0.64 ns (in CCCCCC); 1.11 ns (in CCOC(C)=O); 0.84 ns (in CO); 1.24 ns (in CS(C)=O). The fluorescence lifetime reads like this: (in Cc1ccccc1) 0.88 ns; (in ClCCl) 1.46 ns.

As to `COc1ccc(C2=Cc3c4ccccc4cc[n+]3[B-](F)(F)O2)cc1`, the fluorescence lifetime (in ClC(Cl)Cl) was found to be 0.958 ns.

Where the note is “in CN(C)C=O”, `CCCCCCCCC1(CCCCCCCC)c2cc(-c3ccc([Si](C)(C)C)cc3)ccc2-c2ccc(-c3ccc([Si](C)(C)C)cc3)cc21` had a fluorescence lifetime of 1.01 ns.

Compound `Cc1cccc2c1nc1c(=O)n(C)c(=O)nc-1n2C` came in with a fluorescence lifetime (in CC#N) of 1.8 ns.

For `COc1ccc(N(c2ccc(/C=C(\C)c3ccccc3)cc2)c2ccc(/C=C(\C)c3ccccc3)cc2)cc1`, the fluorescence lifetime (in Cc1ccccc1) came to 1.5 ns.

For the setting “in C1CCOC1”, `Cc1sc(-c2ccc(-c3nc(-c4ccccc4)c(-c4ccccc4)[nH]3)cc2)c(C)c1C1=C(c2c(C)n(C)c3ccccc23)C(F)(F)C(F)(F)C1(F)F` showed a fluorescence lifetime of 0.48 ns.

For the compound `Cn1c(-c2ccc(-c3nc(-c4ccccc4)c(-c4ccccc4)n3C)s2)nc(-c2ccccc2)c1-c1ccccc1`, the fluorescence lifetime (in CC#N) is 1.24 ns.

Regarding `CCCCCCN(CCCCCC)c1ccc(C#Cc2ccc(C#Cc3ccc(-c4ccc(C#Cc5ccc(C#Cc6ccc(N(CCCCCC)CCCCCC)cc6)cc5)cc4)cc3)cc2)cc1`, the fluorescence lifetime (in Cc1ccccc1) stood at 0.8 ns.

As for `COc1c2ccccc2c(OC)c2c1c1ccc(C)cc1n2C`, the fluorescence lifetime is 20.6 ns (in C1CCCCC1), 25.8 ns (in CC#N), 22.9 ns (in CO) and 22 ns (in ClCCl).

Regarding `COc1cc2cc(/C=C/c3ccc(/C=C(\C#N)C(=O)O)cc3)c(=O)oc2cc1OC`, the fluorescence lifetime (in CC#N) is 2.06 ns.

In the case of `F[B-]1(F)n2cccc2C=C2C=CC=[N+]21`, the fluorescence lifetime reads like this: (in C1CCCCC1) 6.47 ns; (in CC(C)=O) 7.12 ns; (in CCCCCC) 6.79 ns; (in CCO) 7.02 ns; (in CCOC(C)=O) 6.9 ns; (in CO) 7.35 ns and 7.33 ns. The fluorescence lifetime is, setting by setting: (in ClCCl) 6.78 ns; (in OCC(F)(F)F) 8.23 ns.

On to `N#Cc1ccc(C#Cc2ccc(C#Cc3ccc(C#Cc4ccccc4C#N)cc3C#N)cc2C#N)cc1`, for which the fluorescence lifetime worked out at 1.23 ns (in C1CCOC1); 1.79 ns (in CC#N); 1.61 ns (in CN(C)C=O); 1.14 ns (in ClC(Cl)Cl); 1.65 ns (in c1ccccc1).

For `CCN1C(=O)C(C2C(=O)c3c4ccccc4cc4cc5ccccc5c2c34)C(=O)N(CC)C1=S` (stereo unspecified), the fluorescence lifetime runs as follows: (in C1CCOC1) 11.1 ns; (in CCCCCC) 13.1 ns; (in Cc1ccccc1) 12.4 ns; (in ClCCl) 10.5 ns.

The values are drawn from the Deep4Chem optical property database.
